Results: patent publication US20230011571A1, “SMALL MOLECULE FURIN INHIBITORS FOR TREATING INFECTIOUS DISEASES” (BP Asset V, Inc., priority 2019, published 2023)

What was measured:
Assay type in all cases: cell-based
[1] = system: dengue virus (DENV); test: microbe, parasite or virus in culture; conditions: Dengue virus, Vero, 120 h, read-out: Percent viral inhibition DENY
[2] = system: Marburg virus (MARV); test: organism not typed; conditions: Vero, 72 h, read-out: Percent viral inhibition MARV
[3] = system: Chikungunya virus (CHIKV); test: microbe, parasite or virus in culture; conditions: Chikungunya virus, Vero, 48 h, read-out: Percent viral inhibition CHKV

Row | SMILES | inhibition at 1 µM [1] [%] | inhibition at 1 µM [2] [%] | inhibition at 1 µM [3] [%]
1 | CC(=O)NCC1CCN(Cc2cc(Oc3ccc(NCC(C)(C)N)nc3)cc(-c3cc(Cl)cc(Cl)c3)c2)CC1 [Example 105, N-((1-((5-((6-((2-amino-2-methylpropyl)amino)pyridin-3-yl)oxy)-3′,5′-dichloro-[1,1′-biphenyl]-3-yl)methyl)piperidin-4-yl)methyl)acetamide] | 19.9 | 0 | 0
2 | CNCc1cc(Oc2ccc(N3CCC(N)CC3)nc2)nc(-c2cc(C)cc(Cl)c2)c1 [Example 108, 1-(5-((6-(3-chloro-5-methylphenyl)-4-((methylamino)methyl)pyridin-2-yl)oxy)pyridin-2-yl)piperidin-4-amine] | 0 | 65.7 | 16.4
3 | CC(=O)NCC1CCN(Cc2cc(Oc3cnc(N4CCNCC4)cn3)nc(-c3cc(Cl)cc(Cl)c3)c2)CC1 [Example 109, N-((1-((2-(3,5-dichlorophenyl)-6-((5-(piperazin-1-yl)pyrazin-2-yl)oxy)pyridin-4-yl)methyl)piperidin-4-yl)methyl)acetamide] | 0 | 32.9 | 7.33
4 | CC(=O)NCC1CCN(Cc2cc(Oc3cnc(N4CCN(C)CC4)cn3)nc(-c3cc(Cl)cc(Cl)c3)c2)CC1 [Example 110, N-((1-((2-(3,5-dichlorophenyl)-6-((5-(4-methylpiperazin-1-yl)pyrazin-2-yl)oxy)pyridin-4-yl)methyl)piperidin-4-yl)methyl)acetamide] | 13.6 | 59.5 | 9.88
5 | CC(=O)NCC1CCN(Cc2cc(Oc3cnc(N4CCN(CCC(=O)O)CC4)cn3)nc(-c3cc(Cl)cc(Cl)c3)c2)CC1 [Example 111] | 48.8 | 29.8 | 22.3
6 | O=C(O)CCC1CCN(Cc2cc(Oc3cnc(N4CCN(CCO)CC4)nc3)cc(-c3cc(Cl)cc(Cl)c3)c2)CC1 [Example 114, 3-(1-((3′,5′-dichloro-5-((2-(4-(2-hydroxyethyl)piperazin-1-yl)pyrimidin-5-yl)oxy)-[1,1′-biphenyl]-3-yl)methyl)piperidin-4-yl)propanoic acid] | 38.1 | 74.2 | 26.6
7 | CC(=O)NCC1CCN(Cc2cc(Oc3ccc(N4CCN(CCC(=O)O)CC4)nc3)nc(-c3cc(F)cc(Cl)c3)c2)CC1 [Example 115, 3-(4-(5-((4-((4-(acetamidomethyl)piperidin-1-yl)methyl)-6-(3-chloro-5-fluorophenyl)pyridin-2-yl)oxy)pyridin-2-yl)piperazin-1-yl)propanoic acid] | 2.3 | 59.2 | 4.53
8 | CC(=O)NCC1CCN(Cc2cc(Oc3ccc(N4CCN(CCC(=O)O)CC4)nc3)nc(-c3cc(F)cc(Br)c3)c2)CC1 [Example 116] | 6.7 | 4.3 | 10.4
9 | CN1CCN(c2ncc(Oc3cc(CN4CCC(CC(=O)O)CC4)cc(-c4cc(Cl)cc(Cl)c4)c3)cn2)CC1 [Example 117, 2-(1-((3′,5′-dichloro-5-((2-(4-methylpiperazin-1-yl)pyrimidin-5-yl)oxy)-[1,1′-biphenyl]-3-yl)methyl)piperidin-4-yl)acetic acid] | 28.6 | 43.6 | 18
10 | CC(=O)NCC1CCN(Cc2cc(Oc3cnc(N4CCCNCC4)nc3)nc(-c3cc(Cl)cc(Cl)c3)c2)CC1 [Example 118, N-((1-((2-((2-(1,4-diazepan-1-yl)pyrimidin-5-yl)oxy)-6-(3,5-dichlorophenyl)pyridin-4-yl)methyl)piperidin-4-yl)methyl)acetamide] | 15.6 | 0 | 0
11 | O=C(O)COC1CCN(Cc2cc(Oc3cnc(N4CCNCC4)nc3)nc(-c3cc(Cl)cc(Cl)c3)c2)CC1 [Example 122, 2-((1-((2-(3,5-dichlorophenyl)-6-((2-(piperazin-1-yl)pyrimidin-5-yl)oxy)pyridin-4-yl)methyl)piperidin-4-yl)oxy)acetic acid] | 33.7 | 23.6 | 35.5
12 | O=C(O)CC1CCN(Cc2cc(Oc3cnc(N4CCNCC(O)C4)nc3)nc(-c3cc(Cl)cc(Cl)c3)c2)CC1 (stereo not drawn) [Example 123, 2-(1-((2-(3,5-dichlorophenyl)-6-((2-(6-hydroxy-1,4-diazepan-1-yl)pyrimidin-5-yl)oxy)pyridin-4-yl)methyl)piperidin-4-yl)acetic acid] | 39.9 | 50.6 | 19.2
13 | NC1(CCO)CCN(c2ncc(Oc3cc(CN4CCC(CC(=O)O)CC4)cc(-c4cc(Cl)cc(Cl)c4)n3)cn2)CC1 [Example 124, 2-(1-((2-((2-(4-amino-4-(2-hydroxyethyl)piperidin-1-yl)pyrimidin-5-yl)oxy)-6-(3,5-dichlorophenyl)pyridin-4-yl)methyl)piperidin-4-yl) acetic acid] | 1.28 | 63.8 | 21.2
14 | CN1CCCN(c2ncc(Oc3cc(CN4CCC(CC(=O)O)CC4)cc(-c4cc(Cl)cc(Cl)c4)n3)cn2)CC1 [Example 126, 2-(1-((2-(3,5-dichlorophenyl)-6-((2-(4-methyl-1,4-diazepan-1-yl)pyrimidin-5-yl)oxy)pyridin-4-yl)methyl)piperidin-4-yl)acetic acid] | 8.34 | 38.5 | 23.6
15 | CC(CC(=O)O)C1CN(Cc2cc(Oc3cnc(N4CCN(C)CC4)nc3)nc(-c3cc(Cl)cc(Cl)c3)c2)C1 (stereo not drawn) [Example 127, 3-(1-((2-(3,5-dichlorophenyl)-6-((2-(4-methylpiperazin-1-yl)pyrimidin-5-yl)oxy)pyridin-4-yl)methyl)azetidin-3-yl)butanoic acid] | 0 | 52.1 | 26
16 | CN1CCN(c2ncc(Oc3cc(CN4CCC(OCC(=O)O)C4)cc(-c4cc(Cl)cc(Cl)c4)n3)cn2)CC1 (stereo not drawn) [Example 128, 2-((1-((2-(3,5-dichlorophenyl)-6-((2-(4-methylpiperazin-1-yl)pyrimidin-5-yl)oxy)pyridin-4-yl)methyl)pyrrolidin-3-yl)oxy)acetic acid] | 7.97 | 51.4 | 3.67
17 | CN1CCN(c2ncc(Oc3cc(CN4CC5CC(CC(=O)O)CC5C4)cc(-c4cc(Cl)cc(Cl)c4)n3)cn2)CC1 (stereo not drawn) [Example 129, 2-(2-((2-(3,5-dichlorophenyl)-6-((2-(4-methylpiperazin-1-yl)pyrimidin-5-yl)oxy)pyridin-4-yl)methyl)octahydrocyclopenta[c]pyrrol-5-yl)acetic acid] | 38.5 | 29.8 | 23.6
18 | CN1CCN(c2ncc(Oc3cc(CN4CCC(CCC(=O)O)CC4)cc(-c4cc(Cl)cc(Cl)c4)n3)cn2)CC1 [Example 130, 3-(1-((2-(3,5-dichlorophenyl)-6-((2-(4-methylpiperazin-1-yl)pyrimidin-5-yl)oxy)pyridin-4-yl)methyl)piperidin-4-yl)propanoic acid] | 33 | 33.3 | 28.4
19 | CC(CC1CCN(Cc2cc(Oc3cnc(N4CCN(C)CC4)nc3)nc(-c3cc(Cl)cc(Cl)c3)c2)CC1)C(=O)O (stereo not drawn) [Example 131, 3-(1-((2-(3,5-dichlorophenyl)-6-((2-(4-methylpiperazin-1-yl)pyrimidin-5-yl)oxy)pyridin-4-yl)methyl)piperidin-4-yl)-2-methylpropanoic acid] | 20.7 | 52.4 | 3.11
20 | O=C(O)CC1CCN(Cc2cc(Oc3cnc(N4CCCNCC4)nc3)nc(-c3cc(Cl)cc(Cl)c3)c2)CC1 [Example 132, 2-(1-((2-((2-(1,4-diazepan-1-yl)pyrimidin-5-yl)oxy)-6-(3,5-dichlorophenyl)pyridin-4-yl)methyl)piperidin-4-yl) acetic acid] | 32.8 | 46.8 | 35.2
21 | CN1CC2CN(c3ncc(Oc4cc(CN5CCC(CC(=O)O)CC5)cc(-c5cc(Cl)cc(Cl)c5)n4)cn3)CC2C1 (stereo not drawn) [Example 133, 2-(1-((2-(3,5-dichlorophenyl)-6-((2-(5-methylhexahydropyrrolo[3,4-c]pyrrol-2(1H)-yl)pyrimidin-5-yl)oxy)pyridin-4-yl)methyl)piperidin-4-yl)acetic acid] | 47.8 | 54 | 43.4
22 | C[C@@H](CC1CCN(Cc2cc(Oc3cnc(N4CCN(C)CC4)nc3)nc(-c3cc(Cl)cc(Cl)c3)c2)CC1)C(=O)O [Example 134, (S)-3-(1-((2-(3,5-dichlorophenyl)-6-((2-(4-methylpiperazin-1-yl)pyrimidin-5-yl)oxy)pyridin-4-yl)methyl)piperidin-4-yl)-2-methylpropanoic acid] | 43.2 | 45.1 | 0
23 | CN1CCN(c2ncc(Oc3cc(CN4CCC5(CC4)CN(C(=O)CO)C5)cc(-c4cc(Cl)cc(Cl)c4)n3)cn2)CC1 [Example 135, 1-(7-((2-(3,5-dichlorophenyl)-6-((2-(4-methylpiperazin-1-yl)pyrimidin-5-yl)oxy)pyridin-4-yl)methyl)-2,7-diazaspiro[3.5]nonan-2-yl)-2-hydroxyethanone] | 56.2 | 51.3 | 12.8
24 | CN1CCN(c2ccc(Oc3cc(CN4CC[C@@H]5[C@H](CC4)[C@H]5C(=O)O)cc(-c4cc(Cl)cc(Cl)c4)n3)cn2)CC1 [Example 136, (1R,7S,8r)-4-((2-(3,5-dichlorophenyl)-6-((6-(4-methylpiperazin-1-yl)pyridin-3-yl)oxy)pyridin-4-yl)methyl)-4-azabicyclo[5.1.0]octane-8-carboxylic acid] | 18 | 57.8 | 39.8
